# Assays:
# GPx-1 [1] = conditions: through interacting with selenocystein by forming a stable gold-Sec complex; cited from earlier work
# Excerpt: Glutathione peroxidase-1 (GPx-1), a crucial antioxidant selenoenzyme in mammalian cells, is selected as a model drug target for tumor treatment. Suppression of intracellular GPx-1 activity induces the accumulation of hydrogen peroxide (reactive oxygen species, ROS), which would render tumor cells susceptible to ROS-induced apoptosis, [20].
# GPx-1 [2] = experiment: GPx-1 enzyme activity suppression in buffer; format: biochemical, bovine; conditions: buffer, Au dose of 400 μM, 10 min, GPx Activity Colorimetric Assay Kit, NADPH absorbance at 340 nm
# Excerpt: The peptides (N2H-CCYGGPEEEEEVG-COOH (named P1), NH2-CCYGGPDDDEDVG-COOH (named P2) and NH2-CCYGGPEEVEEVG-COOH (named P3)) were chemically synthesized by a solid phase method (China Peptides Co. Ltd, Purity: 98%). Hydrogen tetrachloroaurate (III) (HAuCl4·4H2O) was purchased from Sinopharm Chemical Reagent Co. Ltd. Sodium hydroxide (NaOH), nitric acid (HNO3), hydrochloric acid (HCl) and hydrogen peroxide (H2O2) were purchased from Beijing Chemical Reagent Co., China. Human non-small cell lung carcinoma cells (A549 cells), Henrietta Lacks strain of cancer cells (Hela cells) and human colon adenocarcinoma cells (HCT-8 cells) were from Cancer Institute and Hospital, Chinese Academy of Medical Sciences. Fetal bovine serum (FBS) and trypsin-EDTA were obtained from Gibco, USA. Penicillin-streptomycin solution, cell culture medium DMEM and RPMI 1640 were purchased from Hyclone. Hoechst 33342, LysoTracker®Green DND-26, and CM-H2DCFDA were from Molecular Probes, USA. NucView™ 488 Caspase-3 Assay Kit was bought from Biotium, USA. 5,5′,6,6′-tetrachloro-1,1′,3,3′-tetraethylbenzimidazolocarbocyanine iodide (JC-1), cell lysis buffer for Western and IP, phenylmethanesulfonyl fluoride (PMSF) and BCA Protein Assay Kit were obtained from Beyotime Institute of Biotechnology, China. Protease inhibitor cocktail tablets were from Roche Diagnostics, GmbH, Mannheim, Germany. Cell counting kit-8 (CCK-8) reagents and Annexin V-FITC/Propidium (PI) Apoptosis Detection Kit were purchased from Dojindo Laboratories, Japan. GPx from bovine erythrocytes […] was provided by Sigma Aldrich, USA. GPx Activity Colorimetric Assay Kit was provided by Biovision, USA. Anti-GPx-1 antibody was offered by Abcam, UK. PARP antibody, caspase-3 antibody and β-actin antibody were offered by Cell Signaling Technology, USA. Amicon ultra centrifugal filter devices (Merck Millipore, MWCO: 10 kDa) were used for purification steps. Ultrapure Millipore (Mini-Q) water (18.2 MΩ) was used throughout the experiments. […]
# Pure GPx (lyophilized powder, ≥300 units/mg protein) were diluted by GPx sample buffer and incubated with peptide-Au clusters (Au25P1_9, Au25P2_9 and Au25P3_9) at a series of Au dose (0, 25, 100, 400 μM) for 10 min, respectively. […] The GPx activity of untreated samples was set as 100%, and that of peptide-Au clusters treated samples were expressed as a relative percentage of untreated ones.
# Figure S12. Peptide-Au clusters treated GPx-1 activity measured in buffer solution. The decrease in NADPH absorbance measured at 340 nm during the oxidation of NADPH to NADP is the indicative of GPx activity,^1, 2 which is in a dose dependent manner in tube experiments when treated with serial doses of peptide-Au clusters.
# A549 cells = experiment: Cell viability assay (CCK-8), A549; format: cell-based, human; conditions: A549, Au dose of 800 μM, 48 h, CCK-8; mean from three independent experiments
# Protocol: Briefly, cells were prior cultured on 96-well plates (at the density of 5 × 10^3 cells/well) for 24 h to allow cells attachment. The cells were treated with different doses of these free peptides (0, 1, 4, 16, 64, 256, 1024 µM) and peptide-Au clusters (0, 50, 100, 200, 400, 800 µM in Au dose) for 48 h, respectively. The cells were washed three times with PBS and then incubated with fresh growth medium containing 10% (v/v) CCK-8 reagent for 1 h at 37 °C for cell viability assay. The absorbance was measured at 450 nm by using a microplate reader (SpectraMAX M2, Sunnyvale, California). Cell viability of untreated cells was set as 100%, and that of treated cells were expressed as a relative percentage of untreated cells. All data were shown as mean percentages ± standard deviation from three independent experiments.
GPx-1 activity (relative to untreated = 100%) (GPx-1 [2]) [%],Molecule,inhibition of GPx-1 activity (GPx-1 [1]),cell viability (relative to untreated = 100%) (A549 cells) [%]
–,CC(=O)OC[C@H]1O[C@@H]([S-])[C@H](OC(C)=O)[C@@H](OC(C)=O)[C@@H]1OC(C)=O.CCP(CC)CC.[Au+] [auranofin],can inhibit GPx-1 activity,–
–,O=C(O)CC([S-])C(=O)O.[Au+] (stereo not drawn) [gold thiomalate],can inhibit GPx-1 activity,–
29,"CCYGGPEEVEEVG [Au25P3_9, Au25 cluster coated by nine P3 peptides (…)]",–,71
16,"CCYGGPDDDEDVG [Au25P2_9, Au25 cluster coated by nine P2 peptides (…)]",–,53

# Reference: PMC5428013, “Peptide-Au Clusters Induced Tumor Cells Apoptosis via Targeting Glutathione Peroxidase-1: The Molecular Dynamics Assisted Experimental Studies” (Scientific Reports, 2017)
